Data from patent publication US20050112573A1, “Method of detecting toxic substance” (priority 2001, published 2005).

Test system: yeast genes (level of expressed mRNA)
Experiment: DNA chip analysis of expressed mRNA of yeast genes after 2 h culture with a toxic chemical substance
Type: cell-based, Saccharomyces cerevisiae S288C
Details: for The level of expressed mRNA in the presence of chemical substance/ (ratio to absence of chemical substance): stress protein genes, DNA chip
Procedure: Yeast (Saccharomyces cerevtisiae S288C (α SUC2mal mel gap2 CUP1)) were cultured at 25° C. on YPD medium (yeast extract 1%, polypepton 2%, glucose 2%). One of toxic chemical substances was added to the cell at logarithmic growth phase, and the cell was further cultured for two hours. Cell was cultured without any chemical substance in the same condition, and was used as control. Concentrations of the chemical substances were defined to inhibit the growth of the yeast but not lead to death.
After the completion of cultivation, the culture was centrifuged to collect the cells. To the cells, sodium acetate buffer (50 mM sodium acetate, 10 mM EDTA, 1% SDS) was added, and the mixture was shaken at 65° C. for five minutes, followed by returning to room temperature, and obtaining the supernatant, which procedure was repeated two times. To the supernatant, ½ amount of a solution of phenol/chloroform was added, and the mixture was centrifuged to give a supernatant, which was added with an equal amount of chloroform, and the mixture was centrifuged to give a supernatant. To the supernatant, an equal amount of isopropanol containing 0.3 M sodium acetate was added, and the mixture was allowed to stand at room temperature for 30 minutes, after which the mixture was centrifuged to give a sediment of the whole RNAs. Seventy % ethanol was added to the sediment, and the mixture was again centrifuged to give a sediment, which was then dried and dissolved in water. mRNA was isolated from the whole RNAs as followings. In view of the fact that a poly A chain is attached to the 3′ terminus of mRNA, a polynucleotide having a poly T structure which was immobilized on the surface of latex beads was used to trap the mRNA, and then the mRNA was washed and eluted with spine column (Oligotex-dT30<Super>mRNA Purification Kit, Takara). Reverse transcription of the mRNA was conducted with a reverse transcriptase (Super Script II Reverse Transcriptase; catalogue No. 18064-014, GibcoBRL) using fluorescence-labeled nucleotides to give cDNAs that were introduced with Cy3-dUTP or Cy5-dUTP during the reverse transcription.
The labeled cDNAs were dissolved in TE buffer (10 mM Tris-HCl/1 mM EDTA, pH8.0), and the solution was dropped on the DNA chip containing the whole genes of yeast (DNA Chip Research Inc. Japan) so that the cDNAs were hybridized on the DNA chip at 65° C. for over 12 hours. The fluoresces intensity of the DNA chip was read with a scanner, and the ratio relative to the fluorescence intensity resulting from the absence of chemical substance was estimated as the following, which is shown in Tables 1 to 9: [formula]
In the Tables, “Intensity” indicated in the rightmost column is a value of the level of expressed mRNA of each gene in control cells as divided by the average level of the expressions of the whole genes.

SMILES: CCCCC[C@H](O)CC(=O)CCc1ccc(O)c(OC)c1 [(13), gingerol]
- The level of expressed mRNA in the presence of chemical substance/absence: YOR267C (gene YOR267C): 1.4
- The level of expressed mRNA in the presence of chemical substance/absence: YOR325W (gene YOR325W): 0.6
- level of expressed mRNA in the presence of chemical substance/in its absence (gene YOR336W): 2.1
- level of expressed mRNA in the presence of chemical substance/in its absence (gene YOR344C): 1.8
- level of expressed mRNA in the presence of chemical substance/in its absence (gene YOR347C): 1.8
- The level of expressed mRNA in the presence of chemical substance/absence: YPL005W (gene YPL005W): 1.2
- level of expressed mRNA in the presence of chemical substance/in its absence (gene YPL017C): 1.9
- The level of expressed mRNA in the presence of chemical substance / the level in the absence of chemical substance, yeast gene YPL107W (gene YPL107W, DNA chip fluorescence ratio to control without chemical, 2 hours culture with chemical, growth-inhibiting non-lethal concentration): 0.8
- The level of expressed mRNA in the presence of chemical substance / the level in the absence of chemical substance, yeast gene YPL138C (gene YPL138C, DNA chip fluorescence ratio to control without chemical, 2 hours culture with chemical, growth-inhibiting non-lethal concentration): 0.6
- The level of expressed mRNA in the presence of chemical substance/absence: YPL150W (gene YPL150W): 2.1
- The level of expressed mRNA in the presence of chemical substance/absence: YPL151C (gene YPL151C): 1.4
- The level of expressed mRNA in the presence of chemical substance/absence: YPL152W (gene YPL152W): 1.4
- The level of expressed mRNA in the presence of chemical substance/absence: YPL168W (gene YPL168W): 1.0
- The level of expressed mRNA in the presence of chemical substance/absence: YPL180W (gene YPL180W): 1.5
- The level of expressed mRNA in the presence of chemical substance/absence: YPL188W (gene YPL188W): 0.9
- The level of expressed mRNA in the presence of chemical substance/absence: YPL221W (gene YPL221W): 1.0
- The level of expressed mRNA in the presence of chemical substance/absence: YPL225W (gene YPL225W): 0.8
- The level of expressed mRNA in the presence of chemical substance/absence: YPL249C (gene YPL249C): 1.8
- The level of expressed mRNA in the presence of chemical substance/absence: YPL260W (gene YPL260W): 1.4
- level of expressed mRNA in the presence of chemical substance/in its absence (gene YPL265W): 1.1
- level of expressed mRNA in the presence of chemical substance/in its absence (gene YPR006C): 1.8
- level of expressed mRNA in the presence of chemical substance/in its absence (gene YPR026W): 2.3
- The level of expressed mRNA in the presence of chemical substance/absence: YPR049C (gene YPR049C): 1.6
- The level of expressed mRNA in the presence of chemical substance/absence: YPR061C (gene YPR061C): 1.1
- The level of expressed mRNA in the presence of chemical substance/absence: YPR093C (gene YPR093C): 1.4
- The level of expressed mRNA in the presence of chemical substance/absence: YPR146C (gene YPR146C): 1.3
- The level of expressed mRNA in the presence of chemical substance/absence: YPR148C (gene YPR148C): 1.2
- The level of expressed mRNA in the presence of chemical substance/absence: YPR150W (gene YPR150W): 1.4
- The level of expressed mRNA in the presence of chemical substance/absence: YPR158W (gene YPR158W): 1.6
- The level of expressed mRNA in the presence of chemical substance/absence: YPR169W (gene YPR169W): 1.0
- The level of expressed mRNA in the presence of chemical substance/absence: YPR172W (gene YPR172W): 1.3
- The level of expressed mRNA in the presence of chemical substance/absence: YPR174C (gene YPR174C): 1.4
- The level of expressed mRNA in the presence of chemical substance/The level of expressed mRNA in the absence of chemical substance (yeast gene YAR010C): 1.4
- The level of expressed mRNA in the presence of chemical substance/The level of expressed mRNA in the absence of chemical substance (yeast gene YBL005W-A): 2.9
- The level of expressed mRNA in the presence of chemical substance/ (ratio to absence), gene YBL038W (yeast gene YBL038W, mitochondria-located protein genes, 2 h culture with chemical): 1.0
- The level of expressed mRNA in the presence of chemical substance/The level of expressed mRNA in the absence of chemical substance (yeast gene YBL041W): 2.6
- The level of expressed mRNA in the presence of chemical substance/The level of expressed mRNA in the absence of chemical substance (yeast gene YBL043W): 1.8
- The level of expressed mRNA in the presence of chemical substance/The level of expressed mRNA in the absence of chemical substance (yeast gene YBL078C): 5.0
- The level of expressed mRNA in the presence of chemical substance/ (ratio to absence of chemical substance) (yeast gene YBL093C): 2.1
- The level of expressed mRNA in the presence of chemical substance/ (in its absence), gene YBR036C (yeast gene YBR036C, ratio of DNA chip fluorescence intensity to that without chemical substance): 1.9
- The level of expressed mRNA in the presence of chemical substance/ (ratio to absence of chemical substance) (yeast gene YBR044C): 1.2
- The level of expressed mRNA in the presence of chemical substance/ (ratio to absence), gene YBR122C (yeast gene YBR122C, mitochondria-located protein genes, 2 h culture with chemical): 0.8
- The level of expressed mRNA in the presence of chemical substance/The level of expressed mRNA in the absence of chemical substance (yeast gene YBR214W): 2.1
- The level of expressed mRNA in the presence of chemical substance/ (ratio to absence), gene YBR251W (yeast gene YBR251W, mitochondria-located protein genes, 2 h culture with chemical): 1.0
- The level of expressed mRNA in the presence of chemical substance/ (in its absence), gene YBR298C (yeast gene YBR298C, ratio of DNA chip fluorescence intensity to that without chemical substance): 0.8
- The level of expressed mRNA in the presence of chemical substance/The level of expressed mRNA in the absence of chemical substance (yeast gene YCL020W): 3.0
- The level of expressed mRNA in the presence of chemical substance/The level of expressed mRNA in the absence of chemical substance (yeast gene YCL027W): 1.1
- The level of expressed mRNA in the presence of chemical substance/The level of expressed mRNA in the absence of chemical substance (yeast gene YCR004C): 1.3
- The level of expressed mRNA in the presence of chemical substance/ (ratio to absence), gene YCR046C (yeast gene YCR046C, mitochondria-located protein genes, 2 h culture with chemical): 1.5
- The level of expressed mRNA in the presence of chemical substance/The level of expressed mRNA in the absence of chemical substance (yeast gene YCR071C): 1.3
- The level of expressed mRNA in the presence of chemical substance/ (ratio to absence), gene YCR083W (yeast gene YCR083W, mitochondria-located protein genes, 2 h culture with chemical): 1.8
- The level of expressed mRNA in the presence of chemical substance/ (ratio to absence of chemical substance) (yeast gene YCR083W): 1.8
- The level of expressed mRNA in the presence of chemical substance/The level of expressed mRNA in the absence of chemical substance (yeast gene YCR088W): 1.9
- The level of expressed mRNA in the presence of chemical substance/The level of expressed mRNA in the absence of chemical substance (yeast gene YDL008W): 2.0
- The level of expressed mRNA in the presence of chemical substance/ in its absence, gene YDL067C (yeast gene YDL067C, energy system protein genes, 2 h culture with the chemical, ratio to control without chemical): 0.6
- The level of expressed mRNA in the presence of chemical substance/ (ratio to absence), gene YDL067C (yeast gene YDL067C, mitochondria-located protein genes, 2 h culture with chemical): 0.6
- The level of expressed mRNA in the presence of chemical substance/ in its absence, gene YDL078C (yeast gene YDL078C, energy system protein genes, 2 h culture with the chemical, ratio to control without chemical): 1.0
